Reference: the supplement of paper PMC12076712

Assays:
Assay in all cases: pIC50, kinobeads binding competition
UniProt Q9BVS4 = target: UniProt Q9BVS4
Method in brief: (§1)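 To obtain pIC50, fold changes versus vehicle were fitted to logistic dose-response curves (R drc package) across biological duplicates. Protein binding to Kinobeads was quantified by TMT10 LC-MS/MS of digested bead-bound proteins. Treatments used nine concentrations with a top of 30 μM, applied to live Jurkat cells in 1:4 steps for 60 min at 37 °C before lysis, or to Jurkat lysate or a 1:1:1:1 HEK293/K-562/HepG2/placenta lysate mix in 1:5 steps for 60 min at 4 °C.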

TNK1 = target: T1, TNK1 (UniProt Q13470); details: cell material: Lysate mix
T1 sequence (whole entry): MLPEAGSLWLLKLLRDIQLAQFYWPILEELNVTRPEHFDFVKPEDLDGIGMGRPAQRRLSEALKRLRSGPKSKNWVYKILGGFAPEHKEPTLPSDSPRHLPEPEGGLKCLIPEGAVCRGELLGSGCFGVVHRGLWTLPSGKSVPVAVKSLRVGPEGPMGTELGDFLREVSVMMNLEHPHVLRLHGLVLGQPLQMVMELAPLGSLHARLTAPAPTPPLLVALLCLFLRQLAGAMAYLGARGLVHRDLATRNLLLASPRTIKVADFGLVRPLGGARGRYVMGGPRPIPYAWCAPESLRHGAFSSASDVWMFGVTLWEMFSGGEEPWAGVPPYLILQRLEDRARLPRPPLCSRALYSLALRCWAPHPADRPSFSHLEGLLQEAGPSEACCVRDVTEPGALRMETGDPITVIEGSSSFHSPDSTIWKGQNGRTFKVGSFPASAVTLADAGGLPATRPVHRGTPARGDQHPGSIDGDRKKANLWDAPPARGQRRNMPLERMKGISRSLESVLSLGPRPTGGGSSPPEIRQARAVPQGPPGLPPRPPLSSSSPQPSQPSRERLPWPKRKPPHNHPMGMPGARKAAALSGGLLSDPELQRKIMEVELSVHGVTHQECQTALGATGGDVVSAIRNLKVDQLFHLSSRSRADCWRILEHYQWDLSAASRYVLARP
Method in brief: as §1

CIT = CIT (UniProt O14578)
Sequence of CIT (O14578 whole entry): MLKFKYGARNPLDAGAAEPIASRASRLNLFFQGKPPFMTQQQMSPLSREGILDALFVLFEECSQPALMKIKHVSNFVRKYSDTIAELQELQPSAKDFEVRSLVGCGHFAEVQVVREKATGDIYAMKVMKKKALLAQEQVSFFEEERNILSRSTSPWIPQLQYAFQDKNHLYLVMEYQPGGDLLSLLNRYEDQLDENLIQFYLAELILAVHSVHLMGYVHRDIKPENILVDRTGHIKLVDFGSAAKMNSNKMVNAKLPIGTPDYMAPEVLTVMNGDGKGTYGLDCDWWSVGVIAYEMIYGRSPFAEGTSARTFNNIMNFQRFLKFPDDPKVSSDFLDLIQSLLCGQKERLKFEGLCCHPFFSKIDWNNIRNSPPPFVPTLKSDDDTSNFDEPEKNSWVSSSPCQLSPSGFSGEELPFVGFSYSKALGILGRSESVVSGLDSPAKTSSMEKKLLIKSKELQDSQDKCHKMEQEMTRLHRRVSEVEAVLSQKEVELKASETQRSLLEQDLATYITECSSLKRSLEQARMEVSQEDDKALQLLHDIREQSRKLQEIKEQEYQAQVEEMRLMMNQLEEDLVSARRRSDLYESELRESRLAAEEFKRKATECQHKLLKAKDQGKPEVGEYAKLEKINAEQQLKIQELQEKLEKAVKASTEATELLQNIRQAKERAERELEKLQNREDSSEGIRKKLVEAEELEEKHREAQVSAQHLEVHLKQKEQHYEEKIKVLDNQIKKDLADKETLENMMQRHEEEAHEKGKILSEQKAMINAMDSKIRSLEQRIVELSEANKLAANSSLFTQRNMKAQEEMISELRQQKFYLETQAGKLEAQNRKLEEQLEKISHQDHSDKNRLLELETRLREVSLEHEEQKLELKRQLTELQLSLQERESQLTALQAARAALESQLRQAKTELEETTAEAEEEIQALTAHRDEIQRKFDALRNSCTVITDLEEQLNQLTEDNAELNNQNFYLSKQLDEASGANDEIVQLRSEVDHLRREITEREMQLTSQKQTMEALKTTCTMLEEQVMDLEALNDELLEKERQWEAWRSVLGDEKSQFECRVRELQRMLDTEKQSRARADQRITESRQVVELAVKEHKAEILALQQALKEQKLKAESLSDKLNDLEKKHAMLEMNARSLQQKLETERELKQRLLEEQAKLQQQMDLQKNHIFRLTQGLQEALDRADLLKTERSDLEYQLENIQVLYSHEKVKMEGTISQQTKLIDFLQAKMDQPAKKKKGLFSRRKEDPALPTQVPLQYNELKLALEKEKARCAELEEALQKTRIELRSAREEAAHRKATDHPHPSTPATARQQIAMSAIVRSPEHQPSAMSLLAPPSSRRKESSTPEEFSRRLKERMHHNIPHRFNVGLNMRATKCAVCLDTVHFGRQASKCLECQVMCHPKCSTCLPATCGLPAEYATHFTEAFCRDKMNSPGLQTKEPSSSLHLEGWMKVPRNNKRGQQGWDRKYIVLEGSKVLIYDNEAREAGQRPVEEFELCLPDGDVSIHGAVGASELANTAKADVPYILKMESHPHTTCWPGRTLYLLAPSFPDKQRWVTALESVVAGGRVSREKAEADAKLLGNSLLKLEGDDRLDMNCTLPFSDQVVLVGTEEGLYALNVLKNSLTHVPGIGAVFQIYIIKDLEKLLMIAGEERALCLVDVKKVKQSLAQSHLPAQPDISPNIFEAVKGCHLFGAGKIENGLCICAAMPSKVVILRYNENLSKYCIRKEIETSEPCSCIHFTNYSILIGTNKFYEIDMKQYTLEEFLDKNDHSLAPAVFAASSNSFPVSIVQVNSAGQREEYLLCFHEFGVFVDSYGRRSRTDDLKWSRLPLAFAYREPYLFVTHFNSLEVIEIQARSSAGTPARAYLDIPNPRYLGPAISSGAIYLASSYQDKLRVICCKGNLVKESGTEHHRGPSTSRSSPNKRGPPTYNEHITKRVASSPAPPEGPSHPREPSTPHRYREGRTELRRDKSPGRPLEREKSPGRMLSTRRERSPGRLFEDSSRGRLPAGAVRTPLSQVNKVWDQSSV
Method in brief: as §1

FGFR1 = FGFR1 (UniProt P11362)
Sequence of FGFR1 (P11362 whole entry, looked up): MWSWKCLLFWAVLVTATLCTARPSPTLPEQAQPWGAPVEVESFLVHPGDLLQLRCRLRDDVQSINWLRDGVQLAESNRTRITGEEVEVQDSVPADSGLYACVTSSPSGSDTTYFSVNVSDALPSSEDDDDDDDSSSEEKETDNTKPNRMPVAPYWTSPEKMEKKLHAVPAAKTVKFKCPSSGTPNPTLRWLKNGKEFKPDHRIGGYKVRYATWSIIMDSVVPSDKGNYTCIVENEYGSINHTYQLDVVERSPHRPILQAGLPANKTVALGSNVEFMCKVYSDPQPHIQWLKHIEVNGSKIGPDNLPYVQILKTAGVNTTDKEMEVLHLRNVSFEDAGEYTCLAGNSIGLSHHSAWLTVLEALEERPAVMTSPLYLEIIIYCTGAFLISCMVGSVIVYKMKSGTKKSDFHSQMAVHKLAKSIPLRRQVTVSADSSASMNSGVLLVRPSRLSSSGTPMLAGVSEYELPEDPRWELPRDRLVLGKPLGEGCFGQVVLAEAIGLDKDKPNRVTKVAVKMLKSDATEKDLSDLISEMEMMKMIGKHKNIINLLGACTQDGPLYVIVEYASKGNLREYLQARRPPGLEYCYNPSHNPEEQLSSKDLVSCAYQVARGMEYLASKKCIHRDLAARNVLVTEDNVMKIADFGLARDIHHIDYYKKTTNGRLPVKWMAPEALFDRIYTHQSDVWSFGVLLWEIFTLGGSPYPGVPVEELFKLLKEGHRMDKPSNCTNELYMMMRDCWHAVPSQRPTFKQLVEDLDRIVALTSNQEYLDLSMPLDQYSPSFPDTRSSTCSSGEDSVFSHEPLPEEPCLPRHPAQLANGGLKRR
Method in brief: as §1

UniProt Q99759 = target: T2, UniProt Q99759
T2 sequence (whole entry): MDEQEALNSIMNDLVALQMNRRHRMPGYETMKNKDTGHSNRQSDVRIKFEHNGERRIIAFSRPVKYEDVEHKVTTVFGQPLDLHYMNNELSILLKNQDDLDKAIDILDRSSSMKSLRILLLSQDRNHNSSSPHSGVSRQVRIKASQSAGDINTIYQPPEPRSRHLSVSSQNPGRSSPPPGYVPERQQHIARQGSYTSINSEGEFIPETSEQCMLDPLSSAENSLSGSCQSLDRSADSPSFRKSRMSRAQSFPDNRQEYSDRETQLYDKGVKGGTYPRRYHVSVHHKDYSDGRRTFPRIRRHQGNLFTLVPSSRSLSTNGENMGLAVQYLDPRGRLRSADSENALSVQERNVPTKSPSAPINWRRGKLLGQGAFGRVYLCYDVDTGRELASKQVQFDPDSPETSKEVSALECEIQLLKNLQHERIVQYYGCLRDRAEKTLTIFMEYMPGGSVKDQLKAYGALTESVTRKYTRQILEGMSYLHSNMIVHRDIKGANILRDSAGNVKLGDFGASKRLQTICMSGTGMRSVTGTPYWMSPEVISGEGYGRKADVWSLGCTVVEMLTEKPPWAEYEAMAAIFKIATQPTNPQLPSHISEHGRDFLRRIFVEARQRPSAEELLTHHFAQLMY
Method in brief: as §1

UniProt Q15139 = target: T3, UniProt Q15139; details: cell material: Lysate mix
T3 sequence (whole entry): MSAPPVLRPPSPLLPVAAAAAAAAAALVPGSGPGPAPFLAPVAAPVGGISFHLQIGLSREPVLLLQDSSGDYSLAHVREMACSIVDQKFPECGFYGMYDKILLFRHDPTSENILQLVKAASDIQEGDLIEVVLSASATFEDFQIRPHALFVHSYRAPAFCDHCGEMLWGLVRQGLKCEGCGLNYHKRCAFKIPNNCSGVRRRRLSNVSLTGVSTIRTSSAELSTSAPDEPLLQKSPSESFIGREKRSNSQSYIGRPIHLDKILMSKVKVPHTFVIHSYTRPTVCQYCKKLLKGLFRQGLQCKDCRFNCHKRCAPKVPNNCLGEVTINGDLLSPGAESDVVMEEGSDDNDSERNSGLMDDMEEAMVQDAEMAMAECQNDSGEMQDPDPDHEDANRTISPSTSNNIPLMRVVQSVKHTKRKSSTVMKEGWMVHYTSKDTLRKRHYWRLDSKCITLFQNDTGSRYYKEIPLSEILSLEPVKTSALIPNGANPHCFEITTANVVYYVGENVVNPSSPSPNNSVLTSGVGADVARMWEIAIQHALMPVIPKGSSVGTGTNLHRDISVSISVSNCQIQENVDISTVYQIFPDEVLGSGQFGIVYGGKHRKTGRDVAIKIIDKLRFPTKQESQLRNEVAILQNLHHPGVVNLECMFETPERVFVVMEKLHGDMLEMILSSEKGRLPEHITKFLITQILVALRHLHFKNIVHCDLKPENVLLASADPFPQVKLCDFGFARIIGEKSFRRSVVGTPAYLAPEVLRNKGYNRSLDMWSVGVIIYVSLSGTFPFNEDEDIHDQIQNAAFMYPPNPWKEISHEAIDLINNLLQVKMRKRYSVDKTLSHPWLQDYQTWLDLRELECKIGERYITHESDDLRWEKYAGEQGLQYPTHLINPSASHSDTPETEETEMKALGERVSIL
Method in brief: as §1

CDK8 = CDK8 (UniProt P49336)
Sequence of CDK8 (P49336 whole entry): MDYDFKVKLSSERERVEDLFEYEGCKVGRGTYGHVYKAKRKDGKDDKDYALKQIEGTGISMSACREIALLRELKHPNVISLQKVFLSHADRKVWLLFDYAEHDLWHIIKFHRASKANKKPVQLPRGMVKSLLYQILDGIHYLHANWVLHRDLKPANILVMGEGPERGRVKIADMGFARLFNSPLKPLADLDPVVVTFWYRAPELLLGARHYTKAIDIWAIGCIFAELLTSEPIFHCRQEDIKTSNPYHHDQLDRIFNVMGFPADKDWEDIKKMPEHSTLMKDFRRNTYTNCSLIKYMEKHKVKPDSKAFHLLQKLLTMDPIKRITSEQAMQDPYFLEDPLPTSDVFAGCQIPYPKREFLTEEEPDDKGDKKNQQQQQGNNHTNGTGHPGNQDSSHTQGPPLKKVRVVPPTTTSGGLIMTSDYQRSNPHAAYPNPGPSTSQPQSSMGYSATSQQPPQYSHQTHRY
Method in brief: as §1

Sequence of UniProt Q9BVS4 (Q9BVS4 whole entry, looked up): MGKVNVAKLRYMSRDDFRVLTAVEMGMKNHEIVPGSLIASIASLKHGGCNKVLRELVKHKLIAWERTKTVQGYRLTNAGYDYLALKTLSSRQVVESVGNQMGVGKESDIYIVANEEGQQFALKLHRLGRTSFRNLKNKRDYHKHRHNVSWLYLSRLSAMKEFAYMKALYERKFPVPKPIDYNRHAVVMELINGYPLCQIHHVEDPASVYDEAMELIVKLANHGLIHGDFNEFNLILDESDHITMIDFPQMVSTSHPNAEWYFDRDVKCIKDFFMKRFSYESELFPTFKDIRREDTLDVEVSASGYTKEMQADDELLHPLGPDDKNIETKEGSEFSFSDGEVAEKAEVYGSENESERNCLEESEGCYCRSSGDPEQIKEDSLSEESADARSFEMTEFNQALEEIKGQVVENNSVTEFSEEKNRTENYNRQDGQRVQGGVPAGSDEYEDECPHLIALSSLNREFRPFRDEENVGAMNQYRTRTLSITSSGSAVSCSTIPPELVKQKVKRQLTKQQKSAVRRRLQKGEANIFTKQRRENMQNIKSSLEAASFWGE

Question: What does the source list for `CCNC(=O)c1cc(Nc2cc(C)[nH]n2)nc(N2CCN(Cc3ccc(S(=O)(=O)F)cc3)CC2)n1`?
Answer: pIC50 (UniProt Q9BVS4; cell material: Lysate mix): < 4.52; pIC50 (TNK1): 7.07; pIC50 (CIT; cell material: Lysate mix): < 4.52; pIC50 (FGFR1; cell material: Lysate mix): < 4.52; pIC50 (UniProt Q99759; cell material: Lysate mix): < 4.52; pIC50 (UniProt Q15139): < 4.52; pIC50 (CDK8; cell material: Lysate mix): < 4.52

Question: Which pIC50 (UniProt Q9BVS4; cell material: Lysate mix) does the source give for `CCNC(=O)c1cc(Nc2cc(C3CC3)[nH]n2)nc(N2CCN(Cc3ccc(S(=O)(=O)F)cc3)CC2)n1` here?
Answer: < 4.52

Question: And the pIC50 (TNK1)?
Answer: 7.21

Question: And the pIC50 (CIT; cell material: Lysate mix)?
Answer: < 4.52

Question: And the pIC50 (FGFR1; cell material: Lysate mix)?
Answer: 5.24

Question: What about the pIC50 (UniProt Q99759; cell material: Lysate mix) of the same compound?
Answer: 5.08

Question: What about the pIC50 (UniProt Q15139) of the same compound?
Answer: < 4.52

Question: What about the pIC50 (CDK8; cell material: Lysate mix) of the same compound?
Answer: < 4.52

Question: How did the pIC50 (UniProt Q9BVS4; cell material: Lysate mix) turn out when `Cc1cc(Nc2cc(C(=O)NCCNC(=O)OC3CC/C=C/CCC3)nc(N3CCN(Cc4ccc(S(=O)(=O)F)cc4)CC3)n2)n[nH]1` (stereo not given) was run?
Answer: < 4.52

Question: And the pIC50 (TNK1)?
Answer: 4.8

Question: What about the pIC50 (CIT; cell material: Lysate mix) of the same compound?
Answer: < 4.52

Question: What about the pIC50 (FGFR1; cell material: Lysate mix) of the same compound?
Answer: < 4.52

Question: What about the pIC50 (UniProt Q99759; cell material: Lysate mix) of the same compound?
Answer: < 4.52

Question: What about the pIC50 (UniProt Q15139) of the same compound?
Answer: < 4.52

Question: And the pIC50 (CDK8; cell material: Lysate mix)?
Answer: < 4.52

Question: With `C#CCNC(=O)c1cc(Nc2cc(C3CC3)[nH]n2)nc(N2CCN(Cc3ccc(S(=O)(=O)F)cc3)CC2)n1` as the compound, how does the pIC50 (UniProt Q9BVS4; cell material: Jurkat cells) read?
Answer: 5.12

Question: And the pIC50 (UniProt Q9BVS4; cell material: Jurkat lysate)?
Answer: < 4.52

Question: What about the pIC50 (UniProt Q9BVS4; cell material: Lysate mix) of the same compound?
Answer: < 4.52

Question: What about the pIC50 (TNK1) of the same compound?
Answer: 7.34

Question: And the pIC50 (CIT; cell material: Jurkat lysate)?
Answer: < 4.52

Question: And the pIC50 (CIT; cell material: Lysate mix)?
Answer: < 4.52

Question: And the pIC50 (FGFR1; cell material: Jurkat cells)?
Answer: 5.72

Question: What about the pIC50 (FGFR1; cell material: Jurkat lysate) of the same compound?
Answer: < 4.52

Question: And the pIC50 (FGFR1; cell material: Lysate mix)?
Answer: 4.81

Question: And the pIC50 (UniProt Q99759; cell material: Jurkat cells)?
Answer: 5.8

Question: And the pIC50 (UniProt Q99759; cell material: Jurkat lysate)?
Answer: 4.72

Question: What about the pIC50 (UniProt Q99759; cell material: Lysate mix) of the same compound?
Answer: 5.16

Question: And the pIC50 (UniProt Q15139)?
Answer: < 4.52

Question: And the pIC50 (CDK8; cell material: Jurkat cells)?
Answer: < 4.52

Question: And the pIC50 (CDK8; cell material: Jurkat lysate)?
Answer: < 4.52

Question: And the pIC50 (CDK8; cell material: Lysate mix)?
Answer: < 4.52

Question: `C#CCNC(=O)c1cc(Nc2cc(C)[nH]n2)nc(N2CCN(Cc3ccc(S(=O)(=O)F)cc3)CC2)n1` was tested. Which pIC50 (UniProt Q9BVS4; cell material: Lysate mix) did it give?
Answer: < 4.52

Question: What about the pIC50 (TNK1) of the same compound?
Answer: 6.23

Question: What about the pIC50 (CIT; cell material: Lysate mix) of the same compound?
Answer: < 4.52

Question: And the pIC50 (FGFR1; cell material: Lysate mix)?
Answer: < 4.52

Question: And the pIC50 (UniProt Q99759; cell material: Lysate mix)?
Answer: < 4.52

Question: And the pIC50 (UniProt Q15139)?
Answer: < 4.52

Question: What about the pIC50 (CDK8; cell material: Lysate mix) of the same compound?
Answer: < 4.52

Question: Which results are given for `O=C(NCCNC(=O)c1cc(Nc2cc(C3CC3)[nH]n2)nc(N2CCN(Cc3ccc(S(=O)(=O)F)cc3)CC2)n1)OC1CC/C=C/CCC1` (stereo not given)?
Answer: pIC50 (UniProt Q9BVS4; cell material: Jurkat cells): < 4.52; pIC50 (UniProt Q9BVS4; cell material: Jurkat lysate): < 4.52; pIC50 (UniProt Q9BVS4; cell material: Lysate mix): < 4.52; pIC50 (TNK1): 5.44; pIC50 (CIT; cell material: Jurkat cells): < 4.52; pIC50 (CIT; cell material: Jurkat lysate): < 4.52; pIC50 (CIT; cell material: Lysate mix): < 4.52; pIC50 (FGFR1; cell material: Jurkat lysate): < 4.52; pIC50 (FGFR1; cell material: Lysate mix): < 4.52; pIC50 (UniProt Q99759; cell material: Jurkat cells): 4.88; pIC50 (UniProt Q99759; cell material: Jurkat lysate): < 4.52; pIC50 (UniProt Q99759; cell material: Lysate mix): < 4.52; pIC50 (UniProt Q15139): < 4.52; pIC50 (CDK8; cell material: Jurkat cells): < 4.52; pIC50 (CDK8; cell material: Jurkat lysate): < 4.52; pIC50 (CDK8; cell material: Lysate mix): < 4.52
